Test results taken from paper PMC7048748, “Anxiolytic Drug FGIN-1-27 Ameliorates Autoimmunity by Metabolic Reprogramming of Pathogenic Th17 Cells” (Scientific Reports, 2020).

Test system: Th17 cells
Assay: Lipidomics of Th17 cells
Type: cell-based, mouse
Set-up: key to nCE(16:0) / nCE(18:2) / nDCER(22:0) / nDCER[FA14:0] / nFFA(12:0) / nFFA(14:1) / nFFA(18:4) / nCE(22:0) / nCE(22:6) / nCE(24:1) / nCE[FA14:1] / nCE(12:0) / nCE[FA16:0] / nCE[FA17:0] / nCE[FA18:2] / nCE[FA22:6]: mole percent of each fatty acid within its lipid class
Protocol: Specific cholesterol precursors like desmosterol and oxysterols, such as 7β, 27-dihydroxycholesterol (7β, 27-OHC), have been identified as ligands for RORγt[21],[22] and shown to modulate Th17 differentiation. […] Next, we extended our studies to lipid metabolites and profiled the lipidome of Th17 cells treated with DMSO or FGIN-1-27.
(a) Quantitation of cholesterol esters, triacylglycerols (TAGs), phosphatidylethanolamine (PE) and phosphatidylcholine (PC) in Th17 cells 72 hours after treatment with FGIN-1-27. The error bars represent SD. (b) Heat map showing fatty acid composition (mole percent) for different lipid classes after treatment with FGIN-1-27. (c) Pie charts showing proportions of different fatty acid classes namely PUFAs, MUFAs, ODD and SFAs within the cholesterol esters. (d) Transcript analysis for CD5L 72 hours post treatment with FGIN-1-27. The error bars represent SD.
Th17 cells were differentiated from naïve purified CD4 T cells and treated with either FGIN-1-27 (10 µM) or DMSO during polarization. 10 million cells/treatment were harvested and snap frozen. […] The extracts were concentrated under nitrogen and reconstituted in 0.25 mL of dichloromethane:methanol (50:50) containing 10 mM ammonium acetate. The extracts were placed in vials for infusion-MS analyses, performed on a SelexION equipped Sciex 5500 QTRAP using both positive and negative mode electrospray. Each sample was subjected to 2 analyses, with IMS-MS conditions optimized for lipid classes monitored in each analysis. The 5500 QTRAP was operated in MRM mode to monitor the transitions for over 1,100 lipids from up to 14 lipid classes. Individual lipid species were quantified based on the ratio of signal intensity for target compounds to the signal intensity for an assigned internal standard of known concentration. Lipid class concentrations were calculated from the sum of all molecular species within a class, and fatty acid compositions were determined by calculating the proportion of individual fatty acids within each class.

CCCCCCN(CCCCCC)C(=O)Cc1c(-c2ccc(F)cc2)[nH]c2ccccc12 [FGIN-1-27, N, N-di-n-hexyl 2-(4-fluorophenyl) indole-3-acetamide]
down-regulation of cholesterol esters (72 hours, 10 µM): 5 folds | reduction in triacylglycerides (TAGs) (72 hours, 10 µM): 2 fold | MUFA proportion within the cholesterol esters (Fig. 6c pie chart): 39% | ODD proportion within the cholesterol esters (Fig. 6c pie chart): 10% | PUFA proportion within the cholesterol esters (Fig. 6c pie chart): 14% | SFA proportion within the cholesterol esters (Fig. 6c pie chart): 37% | nCE (Th17 cells, 10 µM): 0.3432 | nCE(12:0) (Th17 cells, 10 µM): 0.3209 | nCE(14:0) (Th17 cells, 10 µM): 7.863 | nCE(14:1) (Th17 cells, 10 µM): 0.8946 | nCE(15:0) (Th17 cells, 10 µM): 6.739 | nCE(16:0) (Th17 cells, 10 µM): 20.165 | nCE(16:1) (Th17 cells, 10 µM): 5.753 | nCE(17:0) (Th17 cells, 10 µM): 3.887 | nCE(18:0) (Th17 cells, 10 µM): 9.753 | nCE(18:1) (Th17 cells, 10 µM): 25.3604 | nCE(18:2) (Th17 cells, 10 µM): 6.676 | nCE(18:3) (Th17 cells, 10 µM): 0.6485 | nCE(18:4) (Th17 cells, 10 µM): 0.0392 | nCE(20:0) (Th17 cells, 10 µM): 0.838 | nCE(20:1) (Th17 cells, 10 µM): 1.913 | nCE(20:2) (Th17 cells, 10 µM): 0.3245 | nCE(20:3) (Th17 cells, 10 µM): 0.8988 | nCE(20:4) (Th17 cells, 10 µM): 3.812 | nCE(20:5) (Th17 cells, 10 µM): 0.1401 | nCE(22:0) (Th17 cells, 10 µM): 0.2674 | nCE(22:1) (Th17 cells, 10 µM): 0.4486 | nCE(22:2) (Th17 cells, 10 µM): 0.3494 | nCE(22:4) (Th17 cells, 10 µM): 0.2548 | nCE(22:5) (Th17 cells, 10 µM): 0.2179 | nCE(22:6) (Th17 cells, 10 µM): 0.5711 | nCE(24:0) (Th17 cells, 10 µM): 0.624 | nCE(24:1) (Th17 cells, 10 µM): 1.24 | nCER (Th17 cells, 10 µM): 0.6286 | nCER(14:0) (Th17 cells, 10 µM): 0.8623 | nCER(16:0) (Th17 cells, 10 µM): 27.3543 | nCER(18:0) (Th17 cells, 10 µM): 2.572 | nCER(18:1) (Th17 cells, 10 µM): 0.1145 | nCER(20:0) (Th17 cells, 10 µM): 2.068 | nCER(20:1) (Th17 cells, 10 µM): 0.05342 | nCER(22:0) (Th17 cells, 10 µM): 7.074 | nCER(22:1) (Th17 cells, 10 µM): 0.4579 | nCER(24:0) (Th17 cells, 10 µM): 30.2198 | nCER(24:1) (Th17 cells, 10 µM): 28.2356 | nCER(26:0) (Th17 cells, 10 µM): 0.4655 | nCER(26:1) (Th17 cells, 10 µM): 0.5227 | nCER[FA14:0] (Th17 cells, 10 µM): 0.8623 | nCER[FA16:0] (Th17 cells, 10 µM): 27.3543 | nCER[FA18:0] (Th17 cells, 10 µM): 2.572 | nCER[FA18:1] (Th17 cells, 10 µM): 0.1145 | nCER[FA20:0] (Th17 cells, 10 µM): 2.068 | nCER[FA20:1] (Th17 cells, 10 µM): 0.05342 | nCER[FA22:0] (Th17 cells, 10 µM): 7.074 | nCER[FA22:1] (Th17 cells, 10 µM): 0.4579 | nCER[FA24:0] (Th17 cells, 10 µM): 30.2198 | nCER[FA24:1] (Th17 cells, 10 µM): 28.2356 | nCER[FA26:0] (Th17 cells, 10 µM): 0.4655 | nCER[FA26:1] (Th17 cells, 10 µM): 0.5227 | nCE[FA12:0] (Th17 cells, 10 µM): 0.3209 | nCE[FA14:0] (Th17 cells, 10 µM): 7.863 | nCE[FA14:1] (Th17 cells, 10 µM): 0.8946 | nCE[FA15:0] (Th17 cells, 10 µM): 6.739 | nCE[FA16:0] (Th17 cells, 10 µM): 20.165 | nCE[FA16:1] (Th17 cells, 10 µM): 5.753 | nCE[FA17:0] (Th17 cells, 10 µM): 3.887 | nCE[FA18:0] (Th17 cells, 10 µM): 9.753 | nCE[FA18:1] (Th17 cells, 10 µM): 25.3604 | nCE[FA18:2] (Th17 cells, 10 µM): 6.676 | nCE[FA18:3] (Th17 cells, 10 µM): 0.6485 | nCE[FA18:4] (Th17 cells, 10 µM): 0.0392 | nCE[FA20:0] (Th17 cells, 10 µM): 0.838 | nCE[FA20:1] (Th17 cells, 10 µM): 1.913 | nCE[FA20:2] (Th17 cells, 10 µM): 0.3245 | nCE[FA20:3] (Th17 cells, 10 µM): 0.8988 | nCE[FA20:4] (Th17 cells, 10 µM): 3.812 | nCE[FA20:5] (Th17 cells, 10 µM): 0.1401 | nCE[FA22:0] (Th17 cells, 10 µM): 0.2674 | nCE[FA22:1] (Th17 cells, 10 µM): 0.4486 | nCE[FA22:2] (Th17 cells, 10 µM): 0.3494 | nCE[FA22:4] (Th17 cells, 10 µM): 0.2548 | nCE[FA22:5] (Th17 cells, 10 µM): 0.2179 | nCE[FA22:6] (Th17 cells, 10 µM): 0.5711 | nCE[FA24:0] (Th17 cells, 10 µM): 0.624 | nCE[FA24:1] (Th17 cells, 10 µM): 1.24 | nDAG (Th17 cells, 10 µM): 2.149 | nDAG(12:0/16:0) (Th17 cells, 10 µM): 0.1725 | nDAG(12:0/18:0) (Th17 cells, 10 µM): 0.3066 | nDAG(12:0/18:1) (Th17 cells, 10 µM): 0.3287 | nDAG(12:0/18:2) (Th17 cells, 10 µM): 0.07889 | nDAG(14:0/14:0) (Th17 cells, 10 µM): 0.8017 | nDAG(14:0/16:0) (Th17 cells, 10 µM): 9.103 | nDAG(14:0/16:1) (Th17 cells, 10 µM): 1.239 | nDAG(14:0/18:1) (Th17 cells, 10 µM): 2.636 | nDAG(14:0/18:2) (Th17 cells, 10 µM): 0.1578 | nDAG(14:0/18:3) (Th17 cells, 10 µM): 0.01025 | nDAG(14:0/20:0) (Th17 cells, 10 µM): 0.2618 | nDAG(14:0/20:4) (Th17 cells, 10 µM): 0.02818 | nDAG(14:0/22:6) (Th17 cells, 10 µM): 0.05137 | nDAG(14:1/16:0) (Th17 cells, 10 µM): 0.2729 | nDAG(14:1/18:1) (Th17 cells, 10 µM): 0.217 | nDAG(15:0/18:1) (Th17 cells, 10 µM): 0.2893
